This passage reports TGI and GI50 results from PubChem BioAssay (NCI).

Values joined by “and” are separate entries in the source; they are usually repeats but may differ in a detail not shown here. Equal values may be shown once.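 A five-concentration, 48-hour dose response in 96-well plates underlies each endpoint, interpolated linearly between surrounding concentrations. GI50 marks 50% less growth. TGI denotes the concentration required for complete inhibition of growth.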

Some test systems named below: M19-MEL melanoma; HOP-18 NSCLC; KM20L2 colon; DLD-1 colon; SNB-78 CNS; DMS 273 small cell lung; RXF-631 renal; P388 leukemia; SN12K1 renal; P388/ADR leukemia.
What all share (test): NCI tumour cell line growth inhibition, 48 h

With `Clc1cc(Cl)c2ns[s+]c2c1Cl`, the TGI is more than 100 µM in the assay on M19-MEL melanoma; more than 100 µM with HOP-18 NSCLC; more than 100 µM in the assay on KM20L2 colon; more than 100 µM in the assay on DLD-1 colon; 14.8 µM in the assay on SNB-78 CNS; more than 100 µM in the assay with DMS 273 small cell lung.
With `CNC(=S)/N=C(\N)N(C)C`, the TGI in the assay with M19-MEL melanoma, in the assay on HOP-18 NSCLC, in the assay with KM20L2 colon, in the assay on DLD-1 colon, in the assay with SNB-78 CNS and with DMS 273 small cell lung was more than 100 µM in each case.
With `CCCCNC1CCCCC[C@H]1O` (some centres undefined), the TGI in the assay with M19-MEL melanoma, in the assay on HOP-18 NSCLC, in the assay with KM20L2 colon, in the assay on DLD-1 colon, with SNB-78 CNS and with DMS 273 small cell lung was more than 100 µM each time.
Take `CCOC(=O)/C(C)=C(/O)C(=O)OCC`: the TGI in the assay on HOP-18 NSCLC, with DLD-1 colon, in the assay with SNB-78 CNS, with DMS 273 small cell lung and in the assay on RXF-631 renal was more than 100 µM in each case.
With `COC(=O)[C@@]12C(=O)C=CC(=O)C1C1C(=CC2C)OC2OC3(CCCCC3)OC21` (some centres undefined), the TGI is 35.1 µM in the assay with M19-MEL melanoma; 34.6 µM with HOP-18 NSCLC; 38.4 µM in the assay on KM20L2 colon; 35.7 µM with DLD-1 colon; 42.3 µM with SNB-78 CNS; 36.2 µM in the assay on DMS 273 small cell lung.
Consider `COc1cc2[nH]c3c(c2cc1OC)CCN[C@]31CC[C@]2(CC3c4c(cc(OC)c(O)c42)CCN3C)C[C@H]1OC` (some centres undefined), for which the TGI turned out to be 32.9 µM in the assay on M19-MEL melanoma; 46.7 µM with HOP-18 NSCLC; 60.5 µM with KM20L2 colon; 81 µM with DLD-1 colon; 60.4 µM in the assay on SNB-78 CNS; 4.46 µM with DMS 273 small cell lung. Also, the TGI in the assay on RXF-631 renal turned out to be 25.7 µM.
Take `CN(Cc1ccccc1)C(=O)c1ccccc1C(=O)O`: the TGI with M19-MEL melanoma, in the assay on KM20L2 colon, with DLD-1 colon, with DMS 273 small cell lung and with RXF-631 renal was more than 100 µM in each case.
In the case of `c1cnn(CN(Cn2cccn2)Cn2cccn2)c1`, the TGI in the assay with M19-MEL melanoma, with KM20L2 colon, with DLD-1 colon, with SNB-78 CNS and with DMS 273 small cell lung was more than 100 µM throughout.
For the compound `CCCC1=C(CC)C(C(=O)Nc2c(C)cccc2C)=NC(S)N1` (centres undefined), the TGI in the assay on M19-MEL melanoma, with HOP-18 NSCLC, with KM20L2 colon, in the assay on DLD-1 colon, in the assay on SNB-78 CNS and with DMS 273 small cell lung was more than 100 µM throughout.
Turning to `CC(=O)C1Cn2c(nc3ccccc32)C[Se]1` (centres undefined), the TGI in the assay with M19-MEL melanoma was found to be 4.07 µM; in the assay with HOP-18 NSCLC, 5.44 µM; in the assay on KM20L2 colon, 25.8 µM; in the assay on DLD-1 colon, 13 µM; in the assay with SNB-78 CNS, 17.2 µM; in the assay on RXF-631 renal it was 7.76 µM.
In the case of `COc1cc(Cc2nccc3cc(OC)c(OC)cc23)c(C(C)=O)cc1OC`, the GI50 in the assay with M19-MEL melanoma was more than 750 µM; with HOP-18 NSCLC it was 115 µM; in the assay with KM20L2 colon it was more than 750 µM; in the assay on DLD-1 colon, 118 µM; in the assay on DMS 273 small cell lung, more than 750 µM. The TGI is 223 µM and > 750 µM with M19-MEL melanoma; > 300 µM and 252 µM with HOP-18 NSCLC; 200 µM and > 750 µM in the assay on KM20L2 colon; 169 µM and 351 µM in the assay on DLD-1 colon; 214 µM in the assay with SNB-78 CNS; 119 µM with P388 leukemia. Besides, the TGI in the assay on SN12K1 renal is 300 µM; in the assay on DMS 273 small cell lung, 300 µM and > 750 µM; in the assay with P388/ADR leukemia, 30 µM; with RXF-631 renal it was more than 750 µM.
Take `CC1=CC(C)(C)N=C2SC(c3ccc(N)cc3)=NN12`: the TGI is more than 100 µM with M19-MEL melanoma; more than 100 µM in the assay on HOP-18 NSCLC; more than 100 µM in the assay on KM20L2 colon; more than 68.9 µM in the assay with DLD-1 colon; more than 100 µM with SNB-78 CNS; more than 61.2 µM in the assay with DMS 273 small cell lung. This compound showed a TGI with RXF-631 renal of more than 100 µM.
Regarding `c1ccc(C2N3CCCCC3[C@@H]3c4[nH]c5ccccc5c4CCN23)nc1` (some centres undefined), the TGI in the assay on M19-MEL melanoma, with HOP-18 NSCLC, in the assay with KM20L2 colon, in the assay with DLD-1 colon, with SNB-78 CNS and with DMS 273 small cell lung was more than 100 µM throughout. Moreover, the TGI in the assay with RXF-631 renal is more than 100 µM.
For `COc1cc(/C=C/c2ccc(OC)c(O)c2)cc(OC)c1`, the TGI with M19-MEL melanoma was 30.9 µM; in the assay with KM20L2 colon, 47.5 µM; in the assay with DLD-1 colon, 24.7 µM; with SNB-78 CNS, 44.4 µM; with DMS 273 small cell lung, 34.1 µM.
As to `O=C(/C=C/c1ccc(Cl)c(Cl)c1)c1ccc2ccccc2c1`, the TGI in the assay on M19-MEL melanoma, with HOP-18 NSCLC, in the assay with KM20L2 colon, in the assay on DLD-1 colon, with SNB-78 CNS and in the assay on DMS 273 small cell lung was more than 100 µM each time. The same compound came in with a TGI in the assay with RXF-631 renal of more than 100 µM.
